Article PMC6445168, “Design, synthesis and antimalarial activity of novel bis{N-[(pyrrolo[1,2-a]quinoxalin-4-yl)benzyl]-3-aminopropyl}amine derivatives” (Journal of Enzyme Inhibition and Medicinal Chemistry, 2017)
Where a name gives a salt, the structure may show the parent alone.

Tests used:
[1] = system: P. falciparum CQ-sensitive strain 3D7; assay: In vitro antiplasmodial activity, SYBR Green I fluorescence-based method, 3D7 strain; assay type: cell-based, Plasmodium falciparum; conditions: for IC50: Plasmodium falciparum, 3D7, 48 h, chloroquine-sensitive strain 3D7, 48 h incubation, read-out: P. falciparum strains IC50 values, 3D7; for Selectivity Index HepG2/3D7: ratio CC50 HepG2 / IC50 3D7
Experimental: (§1) The in vitro antiplasmodial activities were tested over concentrations ranging from 39 nM to 40 μM against culture-adapted Plasmodium falciparum reference strains 3D7 and W2. […] The parasites were cultivated in RPMI medium (Sigma-Aldrich, Lyon, France) supplemented with 0.5% Albumax I (Life Technologies corporation, Paisley, United Kingdom), hypoxanthine (Sigma-Aldrich), gentamicin (Sigma-Aldrich), and human erythrocytes and were incubated at 37 °C in a candle jar, as described previously. The P. falciparum drug susceptibility test was carried out in 96-well flat bottom sterile plates under a final volume of 250 μL. After a 48 h incubation with the drugs, quantities of DNA in treated and control cultures of parasites in human erythrocytes were compared according to the SYBR Green I (Sigma-Aldrich) fluorescence-based method[38]^,[39]. Briefly, after incubation, plates were frozen at -20 °C until use. They were then left to thaw for 2 h at room temperature and 100 μL of the homogenized culture were transferred to 96-well flat bottom sterile black plates (Nunc Inc) already containing 100 μL of the SYBR Green I lysis buffer (2xSYBR Green, 20 mM Tris base pH 7.5, 5 mM EDTA, 0.008% w/v saponin, 0.08% w/v Triton X-100). […] Plates were incubated for 1 h at room temperature and then read on a fluorescence plate reader (Tecan, Austria) using excitation and emission wavelengths of 485 and 535 nm, respectively.

[2] = system: P. falciparum CQ-resistant strain W2; assay: In vitro antiplasmodial activity, SYBR Green I fluorescence-based method, W2 strain; assay type: cell-based, Plasmodium falciparum; conditions: for IC50: Plasmodium falciparum, chloroquine-resistant strain W2, 48 h incubation, read-out: P. falciparum strains IC50 values, W2; for Selectivity Index HepG2/W2: ratio CC50 HepG2 / IC50 W2
Experimental: as §1

[3] = system: L. donovani (MHOM/IN/00/DEVI) promastigotes; assay: In vitro antileishmanial activity on promastigotes, MTT assay; assay type: cell-based; conditions: Leishmania donovani, 72 h incubation, mean ± SD of three independent experiments
Experimental: L. donovani (MHOM/IN/00/DEVI) used in this study was provided by the CNR Leishmania (Montpellier, France). The effects of the tested compounds on the growth of L. donovani (MHOM/IN/00/DEVI)promastigotes were assessed by MTT assay[41] .Briefly, promastigotes in log-phase in Schneider′s medium supplemented with 20% fetal calf serum (FCS), 2 mM L-glutamine and antibiotics (100 U/mL penicillin and 100 μg/mL streptomycin), were incubated at an average density of 10^6 parasites/mL in sterile 96-well plates with various concentrations of compounds dissolved in DMSO (final concentration less than 0.5% v/v), in duplicate. Appropriate controls treated by DMSO and pentamidine or amphotericin B (reference drugs purchased from Sigma-Aldrich) were added to each set of experiments. After a 72 h incubation period at 27 °C, parasite metabolic activity was determined. Each plate-well was then microscope-examined for detecting possible precipitate formation. 20 μL of MTT 3–(4,5-dimethylthiazol-2-yl)-2,5-diphenyltetrazolium bromide) solution (5 mg/mL) were added to each well followed by incubation for another 4 h. The enzyme reaction was then stopped by addition of 100 μL of 50% isopropanol – 10% sodium dodecyl sulfate[42] .Plates were shaken vigorously (300 rpm) for 10 minutes and the absorbance measured in a plate reader at 570 nm in a BIO-TEK ELx808 Absorbance Microplate Reader. […] IC50 were calculated by non-linear regression analysis processed on doseresponse curves, using TableCurve 2D V5.0 software. IC50 values represent the mean value calculated from three independent experiments.

[4] = Cytotoxicity evaluation, MTT assay; assay type: cell-based, human; conditions: human, HepG2 cells (hepatocarcinoma cell line, ATCC HB-8065); HepG2, 72 h incubation, mean ± SD of three independent experiments
Experimental: These assays were performed toward the human HepG2 cell line (HepG2 CC50). […] These cells express many of the hepatocyte-specific metabolic enzymes, thus enabling the cytotoxicity of tested product metabolites to be evaluated. […] Duplicate assays were performed for each sample. Each plate-well was then microscope-examined for detecting possible precipitate formation before the medium was aspirated from the wells. 100 μL of MTT solution (0.5 mg/mL in medium without FCS) were then added to each well. […] After this time, the MTT solution was removed and DMSO (100 μL) was added to dissolve the resulting blue formazan crystals. Plates were shaken vigorously (300 rpm) for 5 minutes. The absorbance was measured at 570 nm with 630 nm as reference wavelength spectrophotometer using a BIO-TEK ELx808 Absorbance Microplate Reader. DMSO was used as blank and doxorubicin (Sigma Aldrich) as positive control. Cell viability was calculated as percentage of control (cells incubated without compound). The 50% cytotoxic concentration was determined from the dose-response curve by using the TableCurve 2D V5.0 software (Systat Software, San Jose, CA).

Q: With `COc1ccc2nc(-c3ccc(CNCCCN4CCN(CCCNCc5ccc(-c6nc7ccc(OC)cc7n7cccc67)cc5)CC4)cc3)c3cccn3c2c1` (as salt: ammonium) [1g, Bis{N-[4–(8-methoxypyrrolo[1,2-a]quinoxalin-4-yl)benzyl]-3-aminopropyl}piperazine] as the molecule, how does the melting point read?
A: The melting point was 236 to 239 °C.

Q: With `c1ccc2c(c1)cc1c(-c3ccc(CNCCCN4CCN(CCCNCc5ccc(-c6nc7ccccc7n7c6cc6ccccc67)cc5)CC4)cc3)nc3ccccc3n12` (as salt: ammonium) [1q, Bis{N-[4-(indolo[1,2-a]quinoxalin-6-yl)benzyl]-3-aminopropyl}piperazine] as the molecule, how does the melting point read?
A: The melting point was greater than 260 °C.

Q: For `c1ccc2c(c1)nc(-c1ccc(CNCCCNCCCNCc3ccc(-c4nc5ccccc5n5cccc45)cc3)cc1)c1cccn12` (as salt: ammonium) [1a, Bis{N-[4-(pyrrolo[1,2-a]quinoxalin-4-yl)benzyl]-3-aminopropyl}amine], which melting point is on record?
A: Its melting point is greater than 260 °C.

Q: Which melting point does the source give for `COc1cccc2nc(-c3ccc(CNCCCN(C)CCCNCc4ccc(-c5nc6cccc(OC)c6n6cccc56)cc4)cc3)c3cccn3c12` (as salt: ammonium) [1h, Bis{N-[4–(9-methoxypyrrolo[1,2-a]quinoxalin-4-yl)benzyl]-3-aminopropyl}methylamine] here?
A: The melting point was 160 to 162 °C.

Q: With `CCOc1ccn2c1c(-c1ccc(CNCCCN(C)CCCNCc3ccc(-c4nc5ccccc5n5ccc(OCC)c45)cc3)cc1)nc1ccccc12` (as salt: ammonium) [1j, Bis{N-[4–(3-ethoxypyrrolo[1,2-a]quinoxalin-4-yl)benzyl]-3-aminopropyl}methylamine] as the molecule, how does the melting point read?
A: The melting point was 192 to 195 °C.

Q: Which melting point does the source give for `COc1ccc2nc(-c3ccc(CNCCCN(C)CCCNCc4ccc(-c5nc6ccc(OC)cc6n6cccc56)cc4)cc3)c3cccn3c2c1` (as salt: ammonium) [1f, Bis{N-[4–(8-methoxypyrrolo[1,2-a]quinoxalin-4-yl)benzyl]-3-aminopropyl}methylamine] here?
A: Its melting point is 240 to 242 °C.

Q: With `CN(CCCNCc1ccc(-c2nc3ccccc3n3cccc23)cc1)CCCNCc1ccc(-c2nc3ccccc3n3cccc23)cc1` (as salt: ammonium) [1b, Bis{N-[4-(pyrrolo[1,2-a]quinoxalin-4-yl)benzyl]-3-aminopropyl}methylamine] as the molecule, how does the melting point read?
A: Its melting point is 245 to 248 °C.

Q: With `COc1ccc2nc(-c3cccc(CNCCCN4CCN(CCCNCc5cccc(-c6nc7ccc(OC)cc7n7cccc67)c5)CC4)c3)c3cccn3c2c1` (as salt: ammonium) [1p, Bis{N-[3–(8-methoxypyrrolo[1,2-a]quinoxalin-4-yl)benzyl]-3-aminopropyl}piperazine] as the molecule, how does the melting point read?
A: The melting point was 234 to 237 °C.

Q: For `COc1ccc2nc(-c3cccc(CNCCCN(CCCNCc4cccc(-c5nc6ccc(OC)cc6n6cccc56)c4)CCCNCc4cccc(-c5nc6ccc(OC)cc6n6cccc56)c4)c3)c3cccn3c2c1` (as salt: ammonium) [1t, Tris{N-[3–(8-methoxypyrrolo[1,2-a]quinoxalin-4-yl)benzyl]-3-aminopropyl}amine], which melting point is on record?
A: The melting point was 184 to 187 °C.

Q: With `CCOc1ccn2c1c(-c1ccc(CNCCCN3CCN(CCCNCc4ccc(-c5nc6ccccc6n6ccc(OCC)c56)cc4)CC3)cc1)nc1ccccc12` (as salt: ammonium) [1k, Bis{N-[4–(3-ethoxypyrrolo[1,2-a]quinoxalin-4-yl)benzyl]-3-aminopropyl}piperazine] as the molecule, how does the melting point read?
A: Its melting point is 218 to 220 °C.

Q: Which melting point does the source give for `CN(CCCNCc1cccc(-c2nc3ccccc3n3cccc23)c1)CCCNCc1cccc(-c2nc3ccccc3n3cccc23)c1` (as salt: ammonium) [1m, Bis{N-[3-(pyrrolo[1,2-a]quinoxalin-4-yl)benzyl]-3-aminopropyl}methylamine] here?
A: Its melting point is 209 to 211 °C.

Q: With `c1ccc2c(c1)nc(-c1ccc(CNCCCNCCCNCc3ccc(-c4nc5ccccc5n5cccc45)cc3)cc1)c1cccn12` [1a, Bis{N-[4-(pyrrolo[1,2-a]quinoxalin-4-yl)benzyl]-3-aminopropyl}amine] as the molecule, how does the IC50 [1] read?
A: The IC50 was 3420 ± 540 nM.

Q: And the “Selectivity Index HepG2/3D7” value [1]?
A: Its value is 0.53.

Q: And the IC50 [2]?
A: Its IC50 is 850 ± 150 nM.

Q: What about the “Selectivity Index HepG2/W2” value [2] of the same molecule?
A: The value was 2.13.

Q: And the IC50 [3]?
A: Its IC50 is 1000 ± 200 nM.

Q: What about the CC50 at 72 h [4] of the same molecule?
A: The CC50 at 72 h was 1810 ± 100 nM.

Q: Which melting point does the source give for `c1ccc2c(c1)nc(-c1ccc(CNCCCN3CCN(CCCNCc4ccc(-c5nc6ccccc6n6cccc56)cc4)CC3)cc1)c1cccn12` (as salt: ammonium) [1c, Bis{N-[4-(pyrrolo[1,2-a]quinoxalin-4-yl)benzyl]-3-aminopropyl}piperazine] here?
A: Its melting point is greater than 260 °C.

Q: Which IC50 [1] does the source give for `COc1cccc2nc(-c3ccc(CNCCCN(C)CCCNCc4ccc(-c5nc6cccc(OC)c6n6cccc56)cc4)cc3)c3cccn3c12` [1h, Bis{N-[4–(9-methoxypyrrolo[1,2-a]quinoxalin-4-yl)benzyl]-3-aminopropyl}methylamine] here?
A: The IC50 was 250 ± 40 nM.

Q: What about the “Selectivity Index HepG2/3D7” value [1] of the same molecule?
A: Its value is 9.76.

Q: What about the IC50 [2] of the same molecule?
A: Its IC50 is 440 ± 110 nM.

Q: What about the “Selectivity Index HepG2/W2” value [2] of the same molecule?
A: The value was 5.54.

Q: What about the IC50 [3] of the same molecule?
A: Its IC50 is 2070 ± 20 nM.

Q: What about the CC50 at 72 h [4] of the same molecule?
A: The CC50 at 72 h was 2440 ± 400 nM.

Q: For `COc1ccc2c(c1)nc(-c1ccc(CNCCCN(CCCNCc3ccc(-c4nc5cc(OC)ccc5n5cccc45)cc3)CCCNCc3ccc(-c4nc5cc(OC)ccc5n5cccc45)cc3)cc1)c1cccn12` (as salt: ammonium) [1s, Tris{N-[4–(7-methoxypyrrolo[1,2-a]quinoxalin-4-yl)benzyl]-3-aminopropyl}amine], which melting point is on record?
A: Its melting point is 192 to 194 °C.

Q: Which melting point does the source give for `COc1ccc2nc(-c3cccc(CNCCCN(C)CCCNCc4cccc(-c5nc6ccc(OC)cc6n6cccc56)c4)c3)c3cccn3c2c1` (as salt: ammonium) [1o, Bis{N-[3–(8-methoxypyrrolo[1,2-a]quinoxalin-4-yl)benzyl]-3-aminopropyl}methylamine] here?
A: The melting point was 188 to 191 °C.

Q: Which melting point does the source give for `COc1ccc2nc(-c3cccc(CNCCOCCOCCOCCNCc4cccc(-c5nc6ccc(OC)cc6n6cccc56)c4)c3)c3cccn3c2c1` (as salt: ammonium) [1u, N,N′-[oxybis(2,1-ethanediyloxy-2,1-ethanediyl)]bis-3–(8-methoxypyrrolo[1,2-a]quinoxalin-4-yl)benzylamine] here?
A: The melting point was 141 to 144 °C.

Q: For `CCOc1ccn2c1c(-c1ccc(CNCCCN(C)CCCNCc3ccc(-c4nc5ccccc5n5ccc(OCC)c45)cc3)cc1)nc1ccccc12` [1j, Bis{N-[4–(3-ethoxypyrrolo[1,2-a]quinoxalin-4-yl)benzyl]-3-aminopropyl}methylamine], which IC50 [1] is on record?
A: Its IC50 is 260 ± 30 nM.

Q: And the “Selectivity Index HepG2/3D7” value [1]?
A: Its value is 7.50.

Q: And the IC50 [2]?
A: The IC50 was 490 ± 160 nM.

Q: And the “Selectivity Index HepG2/W2” value [2]?
A: Its value is 3.98.

Q: What about the IC50 [3] of the same molecule?
A: Its IC50 is 4260 ± 100 nM.

Q: What about the CC50 at 72 h [4] of the same molecule?
A: The CC50 at 72 h was 1950 ± 300 nM.

Q: With `COc1ccc2c(c1)nc(-c1ccc(CNCCCN(CCCNCc3ccc(-c4nc5cc(OC)ccc5n5cccc45)cc3)CCCNCc3ccc(-c4nc5cc(OC)ccc5n5cccc45)cc3)cc1)c1cccn12` [1s, Tris{N-[4–(7-methoxypyrrolo[1,2-a]quinoxalin-4-yl)benzyl]-3-aminopropyl}amine] as the molecule, how does the IC50 [1] read?
A: The IC50 was 200 ± 40 nM.

Q: And the “Selectivity Index HepG2/3D7” value [1]?
A: The value was 8.30.

Q: And the IC50 [2]?
A: Its IC50 is 290 ± 50 nM.

Q: And the “Selectivity Index HepG2/W2” value [2]?
A: The value was 5.72.

Q: And the IC50 [3]?
A: Its IC50 is no less than 10000 nM.

Q: What about the CC50 at 72 h [4] of the same molecule?
A: Its CC50 at 72 h is 1660 ± 500 nM.
